Assay results published in publication PMC11915801, “Evolutionary trajectory of bacterial resistance to antibiotics and antimicrobial peptides in Escherichia coli” (mSystems, 2025).
Where a SMILES comes first, the peptide text is derived from it.

What was measured:
Assay in all cases: microbe, parasite or virus in culture
Format in all cases: cell-based, Escherichia coli
[1] = system: CHL80 (evolved MG1655); details: broth microdilution; chloramphenicol-evolved strain
From the text: (§1) To ensure the stable resistance evolution and inheritance of MG1655 under different drugs, we randomly selected three monoclonals from the evolved strains. The final antibiotic-evolved strains were designated as AMP120, AZI120, CHL80, CIP120, DOX120, KAN80, NIT70, and TMP30, while the final AMP-evolved strains were named COL120, Ind120, Omi120, Pex120, PGLA120, Pleu120, R8120, SAAP120, LI120, and SLAP120.
(§2) The broth microdilution method was used to measure the MIC values of antibiotics and peptides according to the Clinical and Laboratory Standards Institute guidelines. The MIC value is defined as the lowest drug concentration without visible bacteria.

[2] = system: KAN80 (evolved MG1655); details: broth microdilution; kanamycin-evolved strain
From the text: as §1, §2

[3] = system: COL120 (evolved MG1655); details: broth microdilution; colistin-evolved strain
From the text: as §1, §2

[4] = system: TMP30 (evolved MG1655); details: broth microdilution; trimethoprim-evolved strain
From the text: as §1, §2

[5] = system: AMP120 (evolved MG1655); details: broth microdilution; ampicillin-evolved strain
From the text: as §1, §2

[6] = system: CIP120 (evolved MG1655); details: broth microdilution; ciprofloxacin-evolved strain
From the text: as §1, §2

[7] = system: AZI120 (evolved MG1655); details: broth microdilution; azithromycin-evolved strain
From the text: as §1, §2

[8] = system: DOX120 (evolved MG1655); details: broth microdilution; doxycycline-evolved strain
From the text: as §1, §2

[9] = system: NIT70 (evolved MG1655); details: broth microdilution; nitrofurantoin-evolved strain
From the text: as §1, §2

[10] = system: E. coli K-12 MG1655; details: for MIC of MG1655 under the pressure of the same drug, generation 20 / MIC of MG1655 under the pressure of the same drug, generation 30 / MIC of MG1655 under the pressure of the same drug, generation 40 / MIC of MG1655 under the pressure of the same drug, generation 50 / MIC of MG1655 under the pressure of the same drug, generation 60 / MIC of MG1655 under the pressure of the same drug, generation 70 / MIC of MG1655 under the pressure of the same drug, generation 80 / MIC of MG1655 under the pressure of the same drug, generation 90 / MIC of MG1655 under the pressure of the same drug, generation 100 / MIC of MG1655 under the pressure of the same drug, generation 110 / MIC of MG1655 under the pressure of the same drug, generation 120: as E2; for MIC of MG1655 under the pressure of the same drug, generation primary: broth microdilution (CLSI), primary MG1655 before passage; for MIC of MG1655 under the pressure of the same drug, generation 10: broth microdilution, line passaged in MH broth with sub-inhibitory drug, 12 h per passage, 37℃
Protocol: as §2
Eight antibiotics and ten AMPs at the sub-inhibitory concentration were prepared. A 300-µL system, including 260 µL of MH broth, 30 µL of prepared drug, and 10 µL of bacterial culture, was used for resistance passages. After 12 h of incubation at 37℃ and 200 rpm, 10 µL of the above bacterial culture was added into the new sterile drug-containing broth. MIC values of bacterial culture were determined. The drug concentration was adjusted according to the MIC value change until the end of the 120 passages.

Structure (SMILES)	MIC values of evolved MG1655, strain CHL80 [1] [µg/mL]	MIC values of evolved MG1655, strain KAN80 [2] [µg/mL]	MIC values of evolved MG1655, strain COL120 [3] [µg/mL]	MIC values of evolved MG1655, strain TMP30 [4] [µg/mL]	MIC values of evolved MG1655, strain AMP120 [5] [µg/mL]	MIC values of evolved MG1655, strain CIP120 [6] [µg/mL]	MIC values of evolved MG1655, strain AZI120 [7] [µg/mL]	MIC values of evolved MG1655, strain DOX120 [8] [µg/mL]	MIC values of evolved MG1655, strain NIT70 [9] [µg/mL]	MIC of MG1655 under the pressure of the same drug, generation 20 [10] [µg/mL]	MIC of MG1655 under the pressure of the same drug, generation 30 [10] [µg/mL]	MIC of MG1655 under the pressure of the same drug, generation 40 [10] [µg/mL]	MIC of MG1655 under the pressure of the same drug, generation 50 [10] [µg/mL]	MIC of MG1655 under the pressure of the same drug, generation 60 [10] [µg/mL]	MIC of MG1655 under the pressure of the same drug, generation 70 [10] [µg/mL]	MIC of MG1655 under the pressure of the same drug, generation 80 [10] [µg/mL]	MIC of MG1655 under the pressure of the same drug, generation 90 [10] [µg/mL]	MIC of MG1655 under the pressure of the same drug, generation 100 [10] [µg/mL]	MIC of MG1655 under the pressure of the same drug, generation 110 [10] [µg/mL]	MIC of MG1655 under the pressure of the same drug, generation 120 [10] [µg/mL]	other results
CC(C)C[C@H](NC(=O)[C@H](CCCCN)NC(=O)[C@H](Cc1ccccc1)NC(=O)[C@@H](NC(=O)[C@H](CCCCN)NC(=O)CNC(=O)[C@H](CC(C)C)NC(=O)[C@@H](N)Cc1ccccc1)C(C)C)C(=O)N[C@@H](C)C(=O)N[C@@H](CO)C(=O)N[C@@H](CCCCN)C(=O)N[C@H](C(=O)N[C@@H](Cc1ccccc1)C(=O)N[C@@H](CCCCN)C(=O)N[C@@H](C)C(=O)N[C@H](C(=O)N[C@@H](Cc1ccccc1)C(=O)NCC(=O)N[C@@H](CCCCN)C(=O)N[C@H](C(=O)O)C(C)C)C(C)C)C(C)C [R8] (H-FLGKVFKLASKVFKAVFGKV-OH)	8	4	4	8	4	8	8	8	8	4	4	4	4	4	4	4	4	4	8	8	MIC of MG1655 under the pressure of the same drug, generation primary [10]: 4 µg/mL; MIC of MG1655 under the pressure of the same drug, generation 10 [10]: 4 µg/mL
CC(C)C[C@H](NC(=O)[C@H](Cc1ccc(O)cc1)NC(=O)[C@H](Cc1c[nH]cn1)NC(=O)[C@@H](NC(=O)[C@H](CC(C)C)NC(=O)[C@H](C)NC(=O)[C@H](C)NC(=O)[C@H](CCCCN)NC(=O)CNC(=O)[C@@H](NC(=O)[C@H](Cc1c[nH]cn1)NC(=O)[C@H](CCCCN)NC(=O)CNC(=O)[C@@H](NC(=O)[C@H](Cc1c[nH]cn1)NC(=O)[C@H](C)NC(=O)[C@H](C)NC(=O)[C@H](CCCCN)NC(=O)[C@H](CCCCN)NC(=O)[C@H](Cc1ccccc1)NC(=O)[C@H](Cc1ccccc1)NC(=O)[C@H](CO)NC(=O)CNC(=O)[C@H](Cc1c[nH]c2ccccc12)NC(=O)CN)C(C)C)C(C)C)[C@@H](C)O)C(=O)O [Pleu, Pleurocidin] (H-GWGSFFKKAAHVGKHVGKAALTHYL-OH)	1	1	1	1	1	1	1	1	1	2	2	2	2	2	2	2	2	2	2	2	MIC of MG1655 under the pressure of the same drug, generation primary [10]: 2 µg/mL; MIC of MG1655 under the pressure of the same drug, generation 10 [10]: 2 µg/mL
